Measurements reported in patent US9040714B2 (MannKind Corporation, priority 2010, dated 2015).
Where a name gives a salt, the structure may show the parent alone.

Test system: IRE-1α-mediated XBP-1 splicing in human myeloma MM.1s cells
Test: Cellular EC50: endogenous XBP-1 splicing in myeloma cells by RT-PCR (DTT stress)
Assay type: cell-based
Conditions: MM1.S, average cellular EC50, XBP-1 splicing in myeloma cells, read-out: EC50_av
Description: Human myeloma MM.1s cells are incubated with a compound for 1.25 hours before stressing the cells with 2 mM dithiothreitol (DTT). After an additional 45 minutes (2 hours total) with compound and DTT, the cells are harvested with TRIZOL® (a mono-phasic solution of phenol and guanidine isothiocyanate), and total RNA is prepared as directed by the manufacturer (Invitrogen). Human XBP-1 is amplified by RT-PCR with the following primers, which flank the 26 base unconventional intron excised by IRE-1α:
RT-PCR of unstressed (U) cells then generates the upper band. When cells are stressed (S) with the endoplasmic reticulum (ER) stressing agent DTT, IRE-1α is activated due to accumulating unfolded protein and the resulting RT-PCR, product is 26 base pairs shorter.
Compounds which pass specificity assays are assayed for cellular EC50 using endogenous XBP-1 splicing in myeloma cells. XBP-1 is regulated through the excision of a 26 nucleotide intron from the XBP-1 mRNA by the highly specific endoribonuclease activity of IRE-1α. […] This splicing event is used to measure IRE-1α activity on XBP-1 mRNA in cells and tissues.
Briefly, compounds are incubated in the presence or absence of an ER stress agent (e.g., DTT), and the ratio of XBP-1u (unspliced) to XBP-1 s (spliced) is quantified by RT-PCR. The ED50 is determined as the 50% XBP-1s to total XPB-1 levels.

SMILES	EC50
O=Cc1c(O)ccc2sc(CCC(=O)N3CCOCC3)cc12 [Example 268]	> 10 µM
COCCNC(=O)CCc1c(C)oc2c(C=O)c(O)ccc2c1=O [Example 215]	< 10 µM
CCNC(=O)CCc1c(C)c2cc(OCCOC)c(O)c(C=O)c2oc1=O [Example 183]	< 10 µM
Cc1c(CC(=O)N2CCOCC2)c(=O)oc2c(C=O)c(O)c(OCCN3CCOCC3)cc12 [Example 206]	10 µM
O=Cc1c(O)ccc2oc(CCC(=O)N3CCOCC3)nc12 [Example 250]	> 10 µM
CN1CCN(C2CCN(c3nc4ccc(O)c(C=O)c4s3)C2)CC1 (stereo not drawn) [Example 54]	> 10 µM
CN1CCN(C(=O)CCc2nc3ccc(O)c(C=O)c3n2C)CC1 [Example 239]	> 10 µM
Cc1oc2c(C=O)c(O)ccc2c(=O)c1CCC(=O)N1CCOCC1 [Example 216]	< 10 µM
Cn1c(CCC(=O)O)nc2c(C=O)c(O)ccc21 [Example 246]	> 10 µM
COCCNC(=O)CCc1nc2c(C=O)c(O)ccc2o1 [Example 249]	> 10 µM
CCNC(=O)Cc1c(C)c2cc(OCCOC)c(O)c(C=O)c2oc1=O [Example 191]	< 10 µM
O=Cc1c(O)ccc2oc(CCC(=O)O)nc12 [Example 248]	> 10 µM
COc1cc2c(=O)c(CC(=O)NCCN(C)C)c(C)oc2c(C=O)c1O [Example 211]	> 10 µM
Cc1c(C)c2cc(OCCN3CCOCC3)c(O)c(C=O)c2oc1=O [Example 203]	< 10 µM
CCNC(=O)c1cc2c(C=O)c(O)ccc2o1 [Example 285]	< 10 µM
CCNC(=O)CCc1nc2c(C=O)c(O)ccc2o1 [Example 252]	> 10 µM
CN1CCN(C(=O)c2cc3c(C=O)c(O)ccc3[nH]2)CC1 [Example 275]	> 10 µM
CC1CCN(C(=O)c2ccc(-c3ccc4c(C=O)c(O)ccc4n3)cc2)CC1 [Compound 47]	> 10 µM
COc1cc(O)c(C=O)c2oc(=O)c(C)c(CN(C)C)c12 [Example 135]	< 10 µM
CC1CCN(C(=O)c2ccc(-c3nc4ccc(O)c(C=O)c4s3)cc2)CC1 [Compound 57]	> 10 µM
CCNC(=O)CCc1cc2c(C=O)c(O)ccc2s1 [Example 269]	> 10 µM

SMILES	EC50
CCNC(=O)CCc1nc2c(C=O)c(O)ccc2[nH]1 [Example 234]	> 10 µM
COc1cc2c(=O)c(CC(=O)NCCN3CCOCC3)c(C)oc2c(C=O)c1O [Example 210]	> 10 µM
COCCOc1cc(O)c(C=O)c2oc(=O)c(CC(=O)NCCN3CCOCC3)c(C)c12 [Example 163]	< 10 µM
CCN(CC)CCc1c(C)c2ccc(O)c(C=O)c2oc1=O [Example 4]	> 10 µM
COCc1cc(=O)oc2c(C=O)c(O)cc(OC)c12 [Example 122]	< 10 µM
Cc1c(-c2cccc(C(=O)N3CCOCC3)c2)c(=O)oc2c(C=O)c(O)ccc12 [Example 13]	< 10 µM
COCCNC(=O)Cc1c(C)c2cc(OCCN3CCOCC3)c(O)c(C=O)c2oc1=O [Example 205]	10 µM
O=Cc1c(O)ccc2nc(-c3cccc(C(=O)N4CCOCC4)c3)ccc12 [Example 43]	< 10 µM
COCCNC(=O)c1cc2c(C=O)c(O)ccc2o1 [Example 282]	> 10 µM
CN1CCN(C(=O)CCc2nc3c(C=O)c(O)ccc3o2)CC1 [Example 251]	> 10 µM
CCOC(=O)CCc1cc2c(C=O)c(O)ccc2s1 [Example 267]	> 10 µM
O=Cc1c(O)ccc2oc(CCC(=O)NCCN3CCOCC3)nc12 [Example 253]	< 10 µM
Cc1c(-c2ccc(C(=O)N3CCC(C)CC3)cc2)c(=O)oc2c(C=O)c(O)ccc12 [Example 19]	< 10 µM
CCNC(=O)CCc1c(C)c2cc(OCCN3CCOCC3)c(O)c(C=O)c2oc1=O [Example 204]	> 10 µM
O=Cc1c(O)ccc2oc(C(=O)NCCN3CCOCC3)cc12 [Example 286]	< 10 µM
CCOC(=O)Cc1c(C)c2c(OCCOC)cc(O)c(C=O)c2oc1=O [Example 158]	< 10 µM
O=Cc1c(O)ccc2sc(C(=O)NCCN3CCOCC3)cc12 [Example 262]	< 10 µM
Cn1c(CCC(=O)NCCN2CCOCC2)nc2ccc(O)c(C=O)c21 [Example 238]	> 10 µM
COc1cc2c(=O)c(CC(=O)N3CCOCC3)c(C)oc2c(C=O)c1O [Example 207]	> 10 µM
Cn1c(CCC(=O)N2CCOCC2)nc2c(C=O)c(O)ccc21 [Example 242]	> 10 µM
Cc1cc(=O)oc2c(C=O)c(O)c(F)cc12 [Example 23, hydrochloride]	< 10 µM

SMILES	EC50
COCCc1c(C)c2cc(OC)c(O)c(C=O)c2oc1=O [Example 125]	< 10 µM
O=Cc1c(O)ccc2[nH]c(CCC(=O)N3CCOCC3)nc12 [Example 232]	> 10 µM
COCCNC(=O)CCc1nc2c(C=O)c(O)ccc2n1C [Example 241]	> 10 µM
Cc1c(CCC(=O)N2CCN(C)CC2)c(=O)oc2c(C=O)c(O)ccc12 [Example 15]	< 10 µM
COCCNC(=O)Cc1c(C)c2cc(OCCOC)c(O)c(C=O)c2oc1=O [Example 190]	< 10 µM
COc1cc2c(=O)c(CCC(=O)N3CCN(C)CC3)c(C)oc2c(C=O)c1O [Example 94]	> 10 µM
COC(=O)Cc1cc2c(C=O)c(O)ccc2s1 [Example 264]	> 10 µM
Cc1nc2c(C=O)c(O)ccc2o1 [Example 255]	< 10 µM
O=Cc1c(O)ccc2nc(CCC(=O)NCCN3CCOCC3)[nH]c12 [Example 235]	> 10 µM
COc1cc2c(=O)c(CCC(=O)NCCN(C)C)c(C)oc2c(C=O)c1O [Example 214]	> 10 µM
COCCNC(=O)Cc1c(C)oc2c(C=O)c(O)ccc2c1=O [Example 220]	< 10 µM
COCCNC(=O)c1cc2c(C=O)c(O)ccc2[nH]1 [Example 273]	> 10 µM
CCNC(=O)Cc1c(C)c2c(OCCOC)cc(O)c(C=O)c2oc1=O [Example 162]	< 10 µM
CN(C)CCNC(=O)CCc1cc2c(C=O)c(O)ccc2s1 [Example 271]	< 10 µM
Cc1oc2c(C=O)c(O)ccc2c(=O)c1CC(=O)N1CCN(C)CC1 [Example 222]	< 10 µM
O=Cc1c(O)ccc2[nH]c(C(=O)NCCN3CCOCC3)cc12 [Example 277]	> 10 µM
O=Cc1c(O)ccc2[nH]c(C(=O)N3CCOCC3)cc12 [Example 274]	> 10 µM
COCCNC(=O)Cc1c(C)c2c(OCCOC)cc(O)c(C=O)c2oc1=O [Example 159]	< 10 µM
CCNC(=O)CCc1nc2c(C=O)c(O)ccc2n1C [Example 230]	> 10 µM
O=Cc1c(O)ccc2oc(C(=O)N3CCOCC3)cc12 [Example 283]	> 10 µM
CCNC(=O)Cc1c(C)oc2c(C=O)c(O)cc(OC)c2c1=O [Example 228]	< 10 µM

SMILES	EC50
COCCOc1cc(O)c(C=O)c2oc(=O)c(CC(=O)N3CCOCC3)c(C)c12 [Example 160]	< 10 µM
CCNC(=O)CCc1c(C)oc2c(C=O)c(O)ccc2c1=O [Example 217]	< 10 µM
CCOC(=O)CCc1nc2c(C=O)c(O)ccc2o1 [Example 247]	> 10 µM
CCNC(=O)CCc1c(C)oc2c(C=O)c(O)c(OC)cc2c1=O [Example 213]	> 10 µM
CCNC(=O)Cc1c(C)oc2c(C=O)c(O)c(OC)cc2c1=O [Example 209]	< 10 µM
Cc1oc2c(C=O)c(O)ccc2c(=O)c1CCC(=O)NCCN1CCOCC1 [Example 219]	> 10 µM
CN1CCN(C(=O)c2cc3c(C=O)c(O)ccc3s2)CC1 [Example 260]	> 10 µM
COc1cc(O)c(C=O)c2oc(=O)c(CC(=O)N3CCN(C)CC3)c(C)c12 [Example 178]	< 10 µM
CCOC(=O)c1cc2c(C=O)c(O)ccc2[nH]1 [Example 279]	> 10 µM
COCCOc1cc(O)c(C=O)c2oc(=O)c(CC(=O)N3CCN(C)CC3)c(C)c12 [Example 161]	< 10 µM
CN1CCC(NC(=O)CCc2nc3c(C=O)c(O)ccc3[nH]2)CC1 [Example 233]	< 10 µM
COCCNC(=O)CCc1nc2ccc(O)c(C=O)c2n1C [Example 237]	> 10 µM
COCCNC(=O)CCc1c(C)c2cc(OCCN3CCOCC3)c(O)c(C=O)c2oc1=O [Example 202]	> 10 µM
COc1cc2c(=O)c(CC(=O)N3CCN(C)CC3)c(C)oc2c(C=O)c1O [Example 208]	> 10 µM
Cc1oc2c(C=O)c(O)ccc2c(=O)c1CC(=O)NCCN(C)C [Example 224]	> 10 µM
Cn1c(CCC(=O)NCCN2CCOCC2)nc2c(C=O)c(O)ccc21 [Example 243]	> 10 µM
O=Cc1c(O)ccc2ocnc12 [Example 257]	> 10 µM
CN1CCN(C(=O)c2cc3c(C=O)c(O)ccc3o2)CC1 [Example 284]	> 10 µM
COCCNC(=O)CCc1nc2c(C=O)c(O)ccc2[nH]1 [Example 231]	> 10 µM

Same assay, conditions: MM1.S, read-out: EC50_av

SMILES	EC50
O=Cc1c(O)ccc2cc(-c3ccc(Br)cc3)c(=O)oc12 [Example 7]	> 10 µM
Cc1c(-c2ccc(C(=O)N3CCCC3)cc2)c(=O)oc2c(C=O)c(O)ccc12 [Example 18]	< 10 µM
O=Cc1c(O)ccc2nc(-c3ccc(C(=O)O)cc3)[nH]c12 [Compound 58]	> 10 µM
O=Cc1c(O)ccc2nc(N3CCC(NC(=O)CN4CCOCC4)C3)ccc12 (stereo not drawn) [Compound 50]	< 10 µM
Cc1c(Br)c(=O)oc2c(C=O)c(O)c(F)cc12 [Example 9]	< 10 µM
